Experimental findings from patent publication US4257941A, “Polycyclic nitrogen-containing compounds” (BASF Aktiengesellschaft, priority 1976, dated 1981) are described below.

Holding throughout (format): in vivo
The subject of one test is Hordeum vulgare. Put plainly: Growth height of young cereal plants (Example 11, Table A). Particulars: soil treatment. An excerpt:
(§1) The vessels used for the experiments were plastic pots having a volume of 1,130 cm^3 (Table A) or paraffined paper cups having a volume of 170 cm^3 (Table B). The pots and cups were filled with a sandy loam. The seeds of the test plants-separated by species-were sown shallow. Preemergence treatment (soil treatment) was effected immediately after sowing and before germination of the seeds. Seeds lying on the surface came into contact with the active ingredients. Postemergence treatment (leaf treatment) took place at an average growth height of the plants (depending on the rate of growth) of from 6 to 10 cm. The substances were suspended, emulsified or dissolved in water as diluent and applied by means of fine nozzles. The vessels were kept in the greenhouse in a temperature range of 12° C. to 25° C., and were regularly sprinkler irrigated for the duration of the experiment. The observation period was 6 to 8 weeks.

For the next test, the system named is Triticum aestivum. Described as above.
Text: as §1

The test system of a further test is Arachis hypogaea. The experiment in a line: Growth-regulating action, postemergence, greenhouse (Example 35, Table 1). Particulars: for growth height relative: control 100.
Text: as §1
(§2) Further experiments were carried out in the greenhouse under the condition described in Example 11. […] As the plants which were examined liked the warmth (Eupghorbia geniculate, Arachis hypogaea, Cynodon dactylon), they were kept at from 20°-30° C. Cynodon dactylon from seed was cut once and the young growth treated postemergence.

The test system of another test is Cynodon dactylon. The test is described as above. Particulars: for growth height relative: control 100.
Text: as §1, §2

For `Clc1ccc(N2N=NC3C4CC(C5N=NC45)C32)c(Cl)c1` (stereo not shown), the Growth height in the test with Hordeum vulgare (0.5 kg/ha) came to 40 cm; with Hordeum vulgare (1.0 kg/ha), 38 cm; in the test on Hordeum vulgare (2.0 kg/ha) it was 53 cm; in the test with Triticum aestivum (leaf treatment, 0.5 kg/ha) it was 40 cm; with Triticum aestivum (leaf treatment, 1.0 kg/ha), 34 cm; with Triticum aestivum (leaf treatment, 2.0 kg/ha), 35 cm. The Growth height in the test with Triticum aestivum (soil treatment, 0.5 kg/ha) was 25 cm; with Triticum aestivum (soil treatment, 1.0 kg/ha), 25 cm; with Triticum aestivum (soil treatment, 2.0 kg/ha), 20 cm.
Regarding `Clc1ccc(CN2N=NC3C4CC(C5N=NC45)C32)cc1` (stereo not shown), the Growth height with Hordeum vulgare (0.5 kg/ha) turned out to be 48 cm; with Hordeum vulgare (1.0 kg/ha), 44 cm; with Hordeum vulgare (2.0 kg/ha), 41 cm; with Triticum aestivum (leaf treatment, 0.5 kg/ha) it was 40 cm; in the test on Triticum aestivum (leaf treatment, 1.0 kg/ha), 39 cm; in the test on Triticum aestivum (leaf treatment, 2.0 kg/ha), 40 cm. Besides, the Growth height in the test on Triticum aestivum (soil treatment, 0.5 kg/ha) was 40 cm; in the test on Triticum aestivum (soil treatment, 1.0 kg/ha) it was 40 cm; in the test on Triticum aestivum (soil treatment, 2.0 kg/ha), 30 cm.
For `O=[N+]([O-])c1cccc(N2N=NC3C4CC(C5N=NC45)C32)c1` (stereo not shown), the Growth height in the test on Hordeum vulgare (0.5 kg/ha) stood at 36 cm; with Hordeum vulgare (1.0 kg/ha) it was 36 cm; in the test on Hordeum vulgare (2.0 kg/ha), 29 cm; with Triticum aestivum (leaf treatment, 0.5 kg/ha), 28 cm; with Triticum aestivum (leaf treatment, 1.0 kg/ha), 28 cm; with Triticum aestivum (leaf treatment, 2.0 kg/ha) it was 17 cm. For the same compound, the Growth height in the test with Triticum aestivum (soil treatment, 0.5 kg/ha) turned out to be 26 cm; with Triticum aestivum (soil treatment, 1.0 kg/ha) it was 26 cm; with Triticum aestivum (soil treatment, 2.0 kg/ha), 13 cm.
On to `FC(F)(F)c1ccc(Cl)c(N2N=NC3C4CC(C5N=NC45)C32)c1` (stereo not shown) [drawing 361], for which the Growth height in the test with Hordeum vulgare (0.5 kg/ha) is 40 cm; with Hordeum vulgare (1.0 kg/ha) it was 39 cm; with Hordeum vulgare (2.0 kg/ha), 38 cm; with Triticum aestivum (leaf treatment, 0.5 kg/ha), 42 cm; with Triticum aestivum (leaf treatment, 1.0 kg/ha), 27 cm; in the test on Triticum aestivum (leaf treatment, 2.0 kg/ha) it was 20 cm. For the same compound, the Growth height in the test with Triticum aestivum (soil treatment, 0.5 kg/ha) is recorded as 16 cm; with Triticum aestivum (soil treatment, 1.0 kg/ha) it was 15 cm; in the test on Triticum aestivum (soil treatment, 2.0 kg/ha), 0 cm.
With `Clc1cccc(N2N=NC3C4CC(C5N=NC45)C32)c1` (stereo not shown) [drawing 364], the Growth height is 43 cm in the test with Hordeum vulgare (0.5 kg/ha); 40 cm with Hordeum vulgare (1.0 kg/ha); 30 cm with Hordeum vulgare (2.0 kg/ha); 29 cm with Triticum aestivum (leaf treatment, 0.25 kg/ha); 25 cm with Triticum aestivum (leaf treatment, 0.5 kg/ha); 13 cm with Triticum aestivum (leaf treatment, 1.0 kg/ha). Moreover, the Growth height with Triticum aestivum (leaf treatment, 2.0 kg/ha) turned out to be 12 cm; in the test on Triticum aestivum (soil treatment, 0.25 kg/ha), 26 cm; with Triticum aestivum (soil treatment, 0.5 kg/ha) it was 15 cm.
As for `Brc1ccccc1N1N=NC2C3CC(C4N=NC34)C21` (stereo not shown) [drawing 365], the Growth height in the test on Hordeum vulgare (0.5 kg/ha) is listed as 40 cm; in the test on Hordeum vulgare (1.0 kg/ha) it was 42 cm; in the test on Hordeum vulgare (2.0 kg/ha), 31 cm; with Triticum aestivum (leaf treatment, 0.5 kg/ha) it was 35 cm; with Triticum aestivum (leaf treatment, 1.0 kg/ha), 33 cm; in the test with Triticum aestivum (leaf treatment, 2.0 kg/ha), 33 cm. Also, the Growth height in the test with Triticum aestivum (soil treatment, 0.5 kg/ha) was determined as 22 cm; in the test with Triticum aestivum (soil treatment, 1.0 kg/ha) it was 12 cm; in the test on Triticum aestivum (soil treatment, 2.0 kg/ha), 10 cm.
On to `Brc1cccc(N2N=NC3C4CC(C5N=NC45)C32)c1` (stereo not shown) [drawing 366], for which the Growth height came out at 38 cm in the test with Hordeum vulgare (0.5 kg/ha); 30 cm in the test on Hordeum vulgare (1.0 kg/ha); 27 cm in the test on Hordeum vulgare (2.0 kg/ha); 33 cm in the test on Triticum aestivum (leaf treatment, 0.5 kg/ha); 28 cm in the test with Triticum aestivum (leaf treatment, 1.0 kg/ha); 17 cm in the test on Triticum aestivum (leaf treatment, 2.0 kg/ha). Also, the Growth height worked out at 24 cm with Triticum aestivum (soil treatment, 0.5 kg/ha); 20 cm in the test on Triticum aestivum (soil treatment, 1.0 kg/ha); 16 cm with Triticum aestivum (soil treatment, 2.0 kg/ha).
Turning to `c1cc2sncc2cc1N1N=NC2C3CC(C4N=NC34)C21` (stereo not shown) [drawing 368], the Growth height in the test on Hordeum vulgare (0.5 kg/ha) was found to be 36 cm; with Hordeum vulgare (1.0 kg/ha) it was 39 cm; in the test with Hordeum vulgare (2.0 kg/ha), 31 cm; in the test on Triticum aestivum (leaf treatment, 0.25 kg/ha), 30 cm; in the test on Triticum aestivum (leaf treatment, 0.5 kg/ha), 23 cm; in the test with Triticum aestivum (leaf treatment, 1.0 kg/ha), 26 cm. The Growth height is on record as 20 cm in the test on Triticum aestivum (leaf treatment, 2.0 kg/ha); 32 cm with Triticum aestivum (soil treatment, 0.25 kg/ha); 28 cm with Triticum aestivum (soil treatment, 0.5 kg/ha); 20 cm in the test with Triticum aestivum (soil treatment, 1.0 kg/ha); 23 cm with Triticum aestivum (soil treatment, 2.0 kg/ha).
`Clc1ccc(N2N=NC3C4CC(C5NNC45)C32)cc1` (stereo not shown) [drawing 369]: the Growth height in the test with Hordeum vulgare (0.25 kg/ha) is on record as 36 cm; in the test on Hordeum vulgare (0.5 kg/ha), 30 cm; in the test on Hordeum vulgare (1.0 kg/ha), 18 cm; with Hordeum vulgare (2.0 kg/ha) it was 14 cm; in the test with Triticum aestivum (leaf treatment, 0.25 kg/ha), 36 cm; in the test on Triticum aestivum (leaf treatment, 0.5 kg/ha), 30 cm. Moreover, the Growth height in the test with Triticum aestivum (leaf treatment, 1.0 kg/ha) stood at 28 cm; with Triticum aestivum (leaf treatment, 2.0 kg/ha), 25 cm; with Triticum aestivum (soil treatment, 0.25 kg/ha), 22 cm; in the test on Triticum aestivum (soil treatment, 0.5 kg/ha), 12 cm; in the test with Triticum aestivum (soil treatment, 1.0 kg/ha) it was 6 cm; in the test on Triticum aestivum (soil treatment, 2.0 kg/ha), 7 cm.
Regarding `CN(C)NC(=O)CCC(=O)O` [drawing 437, reference compound], the Growth height with Arachis hypogaea (0.25 kg/ha) came to 9 cm; with Arachis hypogaea (0.5 kg/ha), 8 cm; in the test on Arachis hypogaea (1.0 kg/ha) it was 7 cm; with Arachis hypogaea (2.0 kg/ha), 7 cm; with Cynodon dactylon (0.5 kg/ha), 12 cm; with Cynodon dactylon (1.0 kg/ha), 12 cm. Further, the Growth height in the test with Cynodon dactylon (2.0 kg/ha) worked out at 9 cm. Further, the growth height relative came to 56 in the test with Arachis hypogaea (0.25 kg/ha); 50 in the test with Arachis hypogaea (0.5 kg/ha); 44 in the test on Arachis hypogaea (1.0 kg/ha); 44 in the test with Arachis hypogaea (2.0 kg/ha); 109 in the test with Cynodon dactylon (0.5 kg/ha); 109 in the test on Cynodon dactylon (1.0 kg/ha). Also, the growth height relative in the test on Cynodon dactylon (2.0 kg/ha) came to 82.
